Reference: patent publication US7803844B2, “Composition for preventing and/or treating bone disease, physiologically functional or health food containing thereof, and pharmaceutical containing thereof as active ingredients” (Erina Co. Inc., priority 2004, dated 2010)

Experiments:
MφRAW264 cells [1] = experiment: Proliferated cell number counting assay (XTT cell viability)
Method: As a non-RI method for determining cell proliferation and cell viability, color reaction by using XTT was employed. MφRAW264 cells were suspended in 10% FBS-MEM, and plated into the 96-well microplate at 0.4×10^4 cells/0.1 mL; then incubated for 1 day. Subsequently, 10% FBS-MEM solution of osteoclast differentiation factor (ODF/RANKL), 100 ng/mL, was added into 0.1 mL per well at final concentration of RANKL, 50 ng/mL. At the same time, honokiol solution at respective concentration was added into the wells. For the control wells, equal volume of methanol not including honokiol was added.
After 3 days incubation, the proliferated cells were counted by using commercially available Cell Proliferation Kit II (Roche Diagnostics Inc., Cat. No. 1 465 015) to obtain the cell viability. The procedure was carried out according to the instruction manual attached, and brief summaries were as follows.
XTT labeling reagent and electron coupling reagent included in the kit were mixed at the ratio of 50:1, and 50 μL of mixture was added per 0.1 mL of medium in each well; then reacted for 4 hours at 37° C. After the termination of the reaction, absorbance at 492 nm of the wave length was measured by using ELISA plate reader (Dainippon Pharma Co.), wherein the reference wave length was 690 nm.
In the above-mentioned (2-2), the same cell proliferation counting assay II was performed instead of honokiol to magnolol and their concentration used was at the range from 20 to 60 μM.

[2] = tested on: M-CSF dependent cells derived from mice bone marrow cells; experiment: Pit formation assay of mature osteoclast; format: cell-based, mouse; settings: 10 μM, 1 day, calcium phosphate apatite coated plate
Method: Alternatively, the bone marrow cells were obtained form the shanks and femurs from ddy mice of 6 to 9 week age, similarly to the methods employed in the example 3.
Obtained bone marrow cells were suspended in 10% FBS-MEM including 100 U/mL of sodium penicillin G, 100 μg/mL of streptomycin sulfate, 50 ng/mL of M-CSF, and 1 ng/mL of TGF-β. Then, the suspension was plated at 0.85×10^6 cells/0.1 mL/well into the 16 well multi slide plate (BioCoat Osteologic Bone Cell Culture System; BD Biosciences, Cat. No.: 354609) which was coated by calcium phosphate apatite, and incubated under the presence of 5% CO2, at 37° C.
After three days incubation, the medium was exchanged to that including 50 ng/mL of M-CSF and 100 ng/mL of osteoclast differentiation factor (ODF/RANKL). Subsequently, the plates were incubated under the same condition until the formation of actin ring, the osteoclast activated structure, was confirmed. After the actin ring was formed, honokiol prepared as the same concentration used in the example 1 is added, and incubated further one day. To the control group, the solvent without honokiol was added.
After 1 day incubation from the addition of honokiol, the medium in the well was discarded, and the plate was washed by using phosphate buffered saline (PBS); then, 0.1 mL of 0.1 M NaOH is added to every well to dissolve the cells in it. […]

MφRAW264 cells [3] = experiment: Inhibition assay I of the early phase differentiation of osteoclast (TRAP activity); format: cell-based; settings: 3 days
Text: Macrophage RAW264 cell line (RIKEN. cell No. CB0535, herein below, referred to as “MφRAW264”), which may differentiate to osteoclast-like cells, was used in the inhibition assay of the early phase differentiation of osteoclast. α-MEM (Invitrogen Co., Cat. No. 11900-024) including 10% of fetal bovine serum (Asahi Technoglass Co., (IWAKI), Cat. No. IWK-500) was used for cultivating MφRAW264. Osteoclast differentiation factor (ODF/RANKL) was purchased from Pepro Tech Inc., Cat. No. 310-01. Inhibition assay I of the early phase differentiation of osteoclast was performed for evaluating the inhibition level of the bone resorption in vitro, the differentiation assay of osteoclast from MφRAW264 cells in early stage. Results of the osteoclast assay were evaluated by determining tartrate resistant acid phosphatase (TRAP) activity, an early stage differentiation marker, and TRAP staining. By using these two indices, activities of flavones from MφRAW264 cells to osteoclast are quantitatively evaluated. MφRAW264 cells were suspended in a α-MEM supplemented 10% of fetal bovine serum (FBS), which is referred to as “10% FBS-MEM herein below”, and plated at 1×10^5 cells/10 mL in 100 mm φ dishes. Then, the dishes were incubated under the presence of 5% of CO2, at 37° C. for 3 days. After confirmed that the plated cells in the dishes became confluent, the incubation was finished. Subsequently, when the cells became confluent, they were treated by using 0.05% of trypsin and Hank's balanced salt solution containing 0.53 mM of EDTA (0.05% Trypsin-0.53 mM EDTA/HBSS (Invitrogen Co., Cat. No. 25300-054) to scrape them, and then suspended in 10% FBS-MEM to plate 0.4×10^4 cells/0.1 mL per each well of 96-well microplates. Then, the plates were incubated one day under the same condition as described above. Osteoclast differentiation factor (ODF/RANKL) was dissolved in 10% FBS-MEM to prepare 100 ng/mL of solution. Alternatively, a stock solution of honokiol was prepared at the concentration of 10 mM in methanol, and stored at −20° C. […] Equal volume of methanol was solely added into the control wells. Honokiol used in the following experiments were the solutions having each concentration prepared as described above. […] Equal volume of methanol without honokiol was added into the control wells. […] Incubation medium in each well of the 96-well microplate was discarded. […] After drying, tartrate resistant acid phosphatase activity was determined (hereinafter, it is referred to as “TRAP assay”), and staining of cells in the well was performed. […] Thirty minutes later, the reaction was terminated by adding 0.1 mL of 0.1 M NaOH, and released p-nitrophenol was determined by the spectrophotometer (Dainippon Pharmaceutical Co. Ltd.) at wave length 405 nm. […]

acid phosphatase = settings: cited from earlier work

C=CCc1ccc(O)c(-c2ccc(O)c(CC=C)c2)c1 [honokiol]
non-specific cytotoxicity to MφRAW264 cells (MφRAW264 cells [1]): does not show non-specific cytotoxicity | pit formation [2]: significantly decreased | TRAP activity (control %) (MφRAW264 cells [3]; MφRAW264 cells stimulated by 50 ng/mL ODF/RANKL, honokiol 3-30 μM, magnolol 20-60 μM): dose-dependently inhibited | IC50 (MφRAW264 cells [3]; Osteoclast, 72 h, MφRAW264 cells, RANKL 50 ng/mL, read-out: IC50, inhibition of MφRAW264 cells to osteoclast by RANKL): 15 µM | inhibition activity of acid phosphatase (acid phosphatase): has the inhibition activity of the acid phosphatase
